# Measurements from article PMC3925085, “Subditine, a New Monoterpenoid Indole Alkaloid from Bark of Nauclea subdita (Korth.) Steud. Induces Apoptosis in Human Prostate Cancer Cells” (PLoS ONE, 2014).
# Experiments:
# [1] = system: caspase-9 in LNCaP cells; assay: Caspase-Glo 9 bioluminescent assay, LNCaP; assay type: cell-based, human
# Description: A time-dependent study of caspase-3/7, -8, and -9 activities was performed in triplicates using assay kits Caspase-Glo 3/7, 8, and 9 (Promega Corp.,Madison,WI, USA) on white 96-well microplate as described previously. A total of 10,000 cells per well was seeded and treated with […] of subditine (1) for 6, 12, 18, 24, and 30 hours. Then, 100 µL of the caspase-Glo reagent was added, incubated at room temperature for 30 minutes and measured using Tecan Infinite 200 Pro (Tecan, Mannedorf, Swizerland) microplate reader.
# [2] = system: RWPE-1 human normal prostate epithelial cells; assay: MTT cell proliferation assay, RWPE-1; assay type: cell-based; details: 24 hours, RWPE-1 normal cells, mean ± S.D.
# Description: Human prostate normal cell line (RWPE-1) and human prostate cancer cell lines; LNCaP and PC-3, were purchased from the American Type Culture Collection (ATCC, Manassas, Virginia, USA). LNCaP and PC-3 cells were grown in Roswell Park Memorial Institute medium (RPMI) supplemented with 10% heat-inactivated fetal bovine serum (FBS, Sigma-Aldrich, St. Louis, MO), 1% penicillin and streptomycin. RWPE-1 cells were maintained in Keratinocyte Serum Free Medium (K-SFM, ATCC) supplemented with bovine pituitary extract (BPE) and human recombinant epidermal growth factor (EGF). Mediums were supplemented with 10% heat-inactivated fetal calf serum (Sigma.), 100 U/ml penicillin and […] streptomycin (Flowlab, Sydney, Australia). All cells were maintained in a humidified atmosphere of 5% CO2 in air at 37°C incubator.
# The anti-proliferative activity was evaluated by performing MTT assays as previously described with minor modifications. Briefly, cells were seeded 24 hours prior to treatment in a 96-well plate at 5×10^4 cells/well in order to obtain 70% to 80% confluent cultures. The compounds were dissolved in DMSO (Sigma Chemical Co., St. Louis, Missouri, USA) followed by a 2×serial dilution for 10 points ranged from 0.825 µM to 100 µM. The 96-well plate was incubated for 24 hours at 37°C in a humidified atmosphere with 5% CO2. At the end of incubation, 50 µl of MTT solution (2 mg/ml; Sigma) was added to each well. The plate was then incubated for 4 hours. All medium was removed and the purple formazan crystal formed at the bottom of the wells was dissolved with 200 µl DMSO for 20 minutes. The absorbance at 570 nm was read on a spectrophotometric plate reader (Hidex). The proportion of surviving cells was calculated as: […]
# Dose-response curves were constructed to obtain the IC50 values. Experimental data were derived from 3 independent experiments. The selectivity index was obtained by mean IC50 RWPE-1/mean IC50 of LNCaP or PC-3.
# [3] = system: PC-3 cells; assay: Hoechst 33342 / phalloidin staining, PC-3; assay type: cell-based, human; details: PC-3, 12.5 µM and 25 µM, 24 hours, P<0.05
# Description: Cytoskeletal and nuclear morphological changes of LNCaP and PC-3 cells were examined by phalloidin (detects F-actin) and Hoechst 33342 staining. […] At concentration 12.5 µM and 25 µM, nuclear condensation and fragmentation were detected at 24 hours after subditine (1) treatment (Figure 4).
# Figure 3 Subditine (1) induced cytoskeletal rearrangement at the peripheral. LNCaP and PC-3 cells were treated with subditine (1) at various concentrations for 24 hours. Cells were fixed and stained with Hoechst (blue) and phalloidin (red) dye which stained nucleus and polymerized actin (F-actin), respectively. Bar chart showing average fluorescent intensity of phalloidin (mean ± S.D.; *p<0.05).
# Figure 4 Subditine (1) treatment leads to nuclear DNA fragmentation. LNCaP and PC-3 cells were treated with subditine (1) (12.5 µM and 25 µM) for 24 h. Cells were then fixed and stained with Hoescht 33342 (blue). Red circles indicate DNA shrinkage or fragmentation. Images were captured using Cellomic arrayscan system.
# [4] = system: Bcl-2 expression in PC-3 cells; assay: Western blotting, Bcl-2 in PC-3; assay type: cell-based, human; details: 24 h
# Description: (§1) To determine protein expression, 1×10^6 cells/mL were seeded and treated with subditine (1) or paclitaxel for 24 h. Whole cell extracts were prepared as previously described. Briefly, cells were collected, lysed and resolved on 10% SDS-polyacrylamide gels. After electrophoresis, the proteins were transferred to PVDF membranes (Millipore), blocked with 5% nonfat dry milk in PBS-T (0.05% Tween 20) for 1 hour at room temperature. Membranes were probed with primary rabbit anti-Bcl-2, Bcl-xL or p53 antibodies followed by horseradish peroxidase (HRP)-conjugated secondary anti-rabbit antibody (Cell Signaling Technology Inc., CA, USA). Membranes were stripped and reprobed with mouse anti-β-actin antibody as loading control (Santa Cruz Biotechnology Inc.). Protein-antibody complexes were detected with Amersham ECL prime Western blotting detection reagent (GE Healthcare, USA).
# [5] = system: Bcl-xL expression in PC-3 cells; assay: Western blotting, Bcl-xL in PC-3; assay type: cell-based, human; details: 24 h
# Description: as §1
# [6] = PC-3, 12.5 µM, compared to control
smiles,measurement,setting,value
"Cc1ncc2c(=O)n3c(cc2c1C=O)-c1[nH]c2ccccc2c1CC3 [Subditine, subditine]",caspase-9 activity,"[1]; after 12 and 24 hours exposure, 12.25 µM",significant increase
same,time of highest caspase-9 activity,[1]; time points 6-30 hours,24 h
same,IC50,[2],30.48 ± 0.08 µM
same,nuclear intensity (apoptotic chromatin changes),[3],significantly increased
same,Bcl-2 protein expression,[4]; [6],no significant change
same,Bcl-2 protein expression,"[4]; PC-3, 25 and 50 µM",drastically down-regulated
same,Bcl-xL protein expression,[5]; [6],no significant change
same,Bcl-xL protein expression,"[5]; PC-3, 25 and 50 µM",drastically down-regulated
